Measured values: US9416115B2, “Fused heterocyclic compounds as ion channel modulators” (Gilead Sciences, Inc., priority 2013, dated 2016)

Target: hNav1.7 (Homo sapiens, UniProt Q15858)
Assay: Voltage-dependent inhibition of the Nav1.7 sodium channel
Type: cell-based
Details: voltage-dependent block of peak current
Description: HEK-293 cells stably expressing wild-type (WT) hNav1.7 were obtained from Scottish Biomedical (Glasgow, Scotland, United Kingdom). Cells are maintained with standard tissue culture procedures and stable channel expression is maintained with 500 ug/mL G418 in the culture medium. Unless otherwise noted, all reagents are purchased from Sigma-Aldrich (St Louis, Mo., U.S.A.).
Assays measuring Voltage-Dependent Block (VDB) of Nav1.7 are performed on an automated electrophysiology platform, QPatch 16X or QPatch HT (Sophion Bioscience, Copenhagen, Denmark), using the whole cell patch clamp technique to measure currents through the cell membrane. Series resistance compensation is set to 100% and series resistance and whole-cell compensation are performed automatically. Currents stored in the Sophion Bioscience Oracle database (Sophion Bioscience, Copenhagen, Denmark). Analysis is performed using QPatch Assay software and data are compiled in Excel 2010 (Microsoft, Seattle, Wash., U.S.A.).
The internal (pipette) solution consists of (in mM) 105 CsF, 10 NaF, 20 CsCl, 2 EGTA, 10 HEPES, 10 Dextrose with a pH of 7.35 and osmolarity of 300 mOsmol/kg. The external (bath) solution contains in (mM): 140 NaCl, 4 KCl, 1.8 CaCl2, 1 MgCl2, 10 dextrose, 10 HEPES, with a pH of 7.35 and osmolarity of 310 mOsmol/kg. Experiments are carried out at 23-25° C.
Compound stocks are routinely made by the Gilead Sample Bank in vials to 10 mM in dimethyl sulfoxide (DMSO). In some cases, when compounds are not soluble in DMSO, they are made in 100% ethanol. Stocks are sonicated as necessary. Compounds are diluted in extracellular solution using a MicroLab Nimbus (Hamilton Robotics, Reno, Nev.) to 1 μM in glass vials and transferred to glass well plates before robotic addition to the cells.
Cells are allowed to stabilize for 10 min after establishment of the whole-cell configuration before current is measured. The test compound is applied 3 times at 120 second intervals to allow for equilibration. Currents were leak subtracted using a P/4 procedure, low-pass Bessel filtered at 5 kHz and digitized at 25 kHz. Results are presented as mean percentage inhibition.
Voltage-dependent block of Nav1.7 peak current was measured during a voltage step to 0 mV (20 ms) following a voltage step pre-conditioning steps (−60 mV for 10 sec followed by −120 mV for 10 ms). The holding potential was −120 mV and this voltage protocol induces half maximal inactivation of Nav1.7. The voltage protocol for VDB was performed every 45 seconds in the absence and presence of compound and percentage inhibition was calculated with respect to the compound free condition.

hNav1.7, sequence (Q15858 whole entry): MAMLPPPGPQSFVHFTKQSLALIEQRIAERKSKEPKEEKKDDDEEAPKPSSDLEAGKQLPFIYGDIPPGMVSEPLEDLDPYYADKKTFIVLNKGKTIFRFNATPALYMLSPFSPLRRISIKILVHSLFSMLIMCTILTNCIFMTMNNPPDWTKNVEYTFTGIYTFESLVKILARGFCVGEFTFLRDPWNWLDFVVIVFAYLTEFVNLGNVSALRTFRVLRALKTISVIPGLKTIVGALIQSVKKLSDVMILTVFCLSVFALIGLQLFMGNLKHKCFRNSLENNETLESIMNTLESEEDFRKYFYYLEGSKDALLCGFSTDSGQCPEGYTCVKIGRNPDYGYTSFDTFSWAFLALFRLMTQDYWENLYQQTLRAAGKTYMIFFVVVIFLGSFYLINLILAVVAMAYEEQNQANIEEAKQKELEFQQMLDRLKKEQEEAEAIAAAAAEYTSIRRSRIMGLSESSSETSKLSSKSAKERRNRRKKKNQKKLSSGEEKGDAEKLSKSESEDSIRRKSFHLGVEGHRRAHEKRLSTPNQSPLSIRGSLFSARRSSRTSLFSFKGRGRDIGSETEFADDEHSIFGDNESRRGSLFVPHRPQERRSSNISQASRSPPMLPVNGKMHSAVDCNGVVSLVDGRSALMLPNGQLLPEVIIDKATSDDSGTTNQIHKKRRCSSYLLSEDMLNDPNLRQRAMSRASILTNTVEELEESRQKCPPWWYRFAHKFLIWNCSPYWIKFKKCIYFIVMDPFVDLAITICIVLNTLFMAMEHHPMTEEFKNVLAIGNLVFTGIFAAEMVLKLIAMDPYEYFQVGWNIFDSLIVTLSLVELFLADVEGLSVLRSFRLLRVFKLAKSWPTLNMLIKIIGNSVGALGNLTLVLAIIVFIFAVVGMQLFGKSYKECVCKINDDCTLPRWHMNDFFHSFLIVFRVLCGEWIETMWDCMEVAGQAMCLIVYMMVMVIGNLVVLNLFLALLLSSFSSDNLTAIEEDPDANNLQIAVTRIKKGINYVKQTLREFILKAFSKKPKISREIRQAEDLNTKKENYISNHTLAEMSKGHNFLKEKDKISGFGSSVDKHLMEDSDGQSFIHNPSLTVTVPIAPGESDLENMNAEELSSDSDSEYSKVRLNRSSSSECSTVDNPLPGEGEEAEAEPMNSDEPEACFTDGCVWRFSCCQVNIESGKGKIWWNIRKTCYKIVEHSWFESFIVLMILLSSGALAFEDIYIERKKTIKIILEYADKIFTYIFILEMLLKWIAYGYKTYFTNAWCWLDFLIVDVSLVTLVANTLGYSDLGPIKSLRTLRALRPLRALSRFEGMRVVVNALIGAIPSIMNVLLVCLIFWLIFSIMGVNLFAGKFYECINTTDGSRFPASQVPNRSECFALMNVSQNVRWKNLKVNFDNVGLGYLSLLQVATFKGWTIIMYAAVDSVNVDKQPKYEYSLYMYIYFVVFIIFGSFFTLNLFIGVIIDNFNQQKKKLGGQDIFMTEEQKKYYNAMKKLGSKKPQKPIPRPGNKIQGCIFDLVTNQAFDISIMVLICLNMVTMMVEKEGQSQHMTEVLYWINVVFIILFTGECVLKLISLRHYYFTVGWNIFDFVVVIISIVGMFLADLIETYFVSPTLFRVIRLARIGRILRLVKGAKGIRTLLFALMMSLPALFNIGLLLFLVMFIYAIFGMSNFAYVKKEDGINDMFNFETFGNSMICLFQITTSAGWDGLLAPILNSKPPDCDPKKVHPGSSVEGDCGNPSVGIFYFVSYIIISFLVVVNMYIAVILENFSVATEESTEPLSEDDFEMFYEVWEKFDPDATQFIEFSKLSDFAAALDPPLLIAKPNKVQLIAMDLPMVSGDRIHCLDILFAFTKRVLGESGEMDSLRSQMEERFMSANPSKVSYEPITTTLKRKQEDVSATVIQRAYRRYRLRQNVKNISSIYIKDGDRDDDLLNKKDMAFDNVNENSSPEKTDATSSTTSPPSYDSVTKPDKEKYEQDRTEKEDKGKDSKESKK

Cc1cc(OC(F)(F)F)ccc1-c1cc2c(OCc3ncccn3)noc2cc1C [Example 29, 6-methyl-5-(2-methyl-4-(trifluoromethoxy)phenyl)-3-(pyrimidin-2-ylmethoxy)benzo[d]isoxazole]
Nav 1.7-VDB 1 uM: 34.2 percentage inhibition
